In ChEMBL document CHEMBL3885881, “DrugMatrix”:

Species: Rattus norvegicus
Assay: DrugMatrix - Regimen: Daily Repeat
Assay type: toxicity, organism-based, Sprague-Dawley
Design: regimen Daily Repeat, gender Male, age 6-8 weeks
Conditions: in vivo, po, route oral GAVAGE, vehicle 100 % WATER; for ABSOLUTE BASOPHIL / ABSOLUTE EOSINOPHIL / ABSOLUTE LYMPHOCYTE / ABSOLUTE MONOCYTE / ABSOLUTE SEGMENTED NEUTROPHIL / BASOPHIL / EOSINOPHIL / ERYTHROCYTE COUNT / HEMATOCRIT / HEMOGLOBIN / LEUKOCYTE COUNT / LYMPHOCYTE / MEAN CORPUSCULAR HEMOGLOBIN / MEAN CORPUSCULAR HEMOGLOBIN CONCENTRATION / MEAN CORPUSCULAR VOLUME / MONOCYTE / NEUTROPHIL / NUCLEATED RED BLOOD CELLS / PLATELET COUNT: tissue Blood; for ALANINE AMINOTRANSFERASE / ALBUMIN / ALKALINE PHOSPHATASE / ASPARTATE AMINOTRANSFERASE / BLOOD UREA NITROGEN / CARBON DIOXIDE / CHLORIDE / CHOLESTEROL / CREATINE PHOSPHOKINASE / CREATININE / GLUCOSE / LACTATE DEHYDROGENASE / LIPASE / PHOSPHORUS / POTASSIUM / SODIUM / TOTAL BILIRUBIN / TOTAL PROTEIN / URIC ACID: tissue Plasma
[1] = 0 mg/kg, 72 h, dose level Control, time 3 day
[2] = 0 mg/kg, 120 h, dose level Control, time 5 day
[3] = 20 mg/kg, 72 h, dose level Low, time 3 day

C=CCC1(C(C)CCC)C(=O)NC(=O)NC1=O (centres undefined) [SECOBARBITAL]
ABSOLUTE BASOPHIL [1]: 0 CELLS/uL
ABSOLUTE EOSINOPHIL [1]: 32.5 CELLS/uL
ABSOLUTE LYMPHOCYTE [1]: 9305.83 CELLS/uL
ABSOLUTE MONOCYTE [1]: 43.83 CELLS/uL
ABSOLUTE SEGMENTED NEUTROPHIL [1]: 817.83 CELLS/uL
BASOPHIL [1]: 0%
EOSINOPHIL [1]: 0.33%
ERYTHROCYTE COUNT [1]: 5.38 x10E6/uL
HEMATOCRIT [1]: 33.63%
HEMOGLOBIN [1]: 13.17 G/DL
LEUKOCYTE COUNT [1]: 10.2 x10E3/uL
LYMPHOCYTE [1]: 91.17%
MEAN CORPUSCULAR HEMOGLOBIN [1]: 24.5 pg
MEAN CORPUSCULAR HEMOGLOBIN CONCENTRATION [1]: 39.13 G/DL
MEAN CORPUSCULAR VOLUME [1]: 62.53 fL
MONOCYTE [1]: 0.5%
NEUTROPHIL [1]: 8%
NUCLEATED RED BLOOD CELLS [1]: 0.17 /100WBC
PLATELET COUNT [1]: 858 x10E3/uL
ALANINE AMINOTRANSFERASE [1]: 55.67 u/L
ALBUMIN [1]: 4.07 G/DL
ALKALINE PHOSPHATASE [1]: 337 u/L
ASPARTATE AMINOTRANSFERASE [1]: 84 u/L
BLOOD UREA NITROGEN [1]: 13.17 mg/dL
CARBON DIOXIDE [1]: 34.17 mmol/L
CHLORIDE [1]: 99.33 MEQ/L
CHOLESTEROL [1]: 78.83 mg/dL
CREATINE PHOSPHOKINASE [1]: 576.83 u/L
CREATININE [1]: 0.17 mg/dL
GLUCOSE [1]: 152.67 mg/dL
LACTATE DEHYDROGENASE [1]: 147.83 u/L
LIPASE [1]: 9.5 u/L
PHOSPHORUS [1]: 10.78 mg/dL
POTASSIUM [1]: 6.34 MEQ/L
SODIUM [1]: 144.12 MEQ/L
TOTAL BILIRUBIN [1]: 0.18 mg/dL
TOTAL PROTEIN [1]: 6.08 G/DL
URIC ACID [1]: 0.65 mg/dL
ABSOLUTE BASOPHIL [2]: 0 CELLS/uL
ABSOLUTE EOSINOPHIL [2]: 31.17 CELLS/uL
ABSOLUTE LYMPHOCYTE [2]: 7918.33 CELLS/uL
ABSOLUTE MONOCYTE [2]: 58.33 CELLS/uL
ABSOLUTE SEGMENTED NEUTROPHIL [2]: 725.5 CELLS/uL
BASOPHIL [2]: 0%
EOSINOPHIL [2]: 0.33%
ERYTHROCYTE COUNT [2]: 5.32 x10E6/uL
HEMATOCRIT [2]: 33.53%
HEMOGLOBIN [2]: 13.17 G/DL
LEUKOCYTE COUNT [2]: 8.73 x10E3/uL
LYMPHOCYTE [2]: 90.33%
MEAN CORPUSCULAR HEMOGLOBIN [2]: 24.82 pg
MEAN CORPUSCULAR HEMOGLOBIN CONCENTRATION [2]: 39.33 G/DL
MEAN CORPUSCULAR VOLUME [2]: 63.12 fL
MONOCYTE [2]: 0.67%
NEUTROPHIL [2]: 8.67%
NUCLEATED RED BLOOD CELLS [2]: 0 /100WBC
PLATELET COUNT [2]: 1144.83 x10E3/uL
ALANINE AMINOTRANSFERASE [2]: 60.5 u/L
ALBUMIN [2]: 3.97 G/DL
ALKALINE PHOSPHATASE [2]: 343.17 u/L
ASPARTATE AMINOTRANSFERASE [2]: 80.83 u/L
BLOOD UREA NITROGEN [2]: 15 mg/dL
CARBON DIOXIDE [2]: 31 mmol/L
CHLORIDE [2]: 99.75 MEQ/L
CHOLESTEROL [2]: 71.5 mg/dL
CREATINE PHOSPHOKINASE [2]: 237.17 u/L
CREATININE [2]: 0.17 mg/dL
GLUCOSE [2]: 137 mg/dL
LACTATE DEHYDROGENASE [2]: 146.17 u/L
LIPASE [2]: 11.5 u/L
PHOSPHORUS [2]: 10.13 mg/dL
POTASSIUM [2]: 6 MEQ/L
SODIUM [2]: 145 MEQ/L
TOTAL BILIRUBIN [2]: 0.13 mg/dL
TOTAL PROTEIN [2]: 5.82 G/DL
URIC ACID [2]: 0.62 mg/dL
ABSOLUTE BASOPHIL [3]: 0 CELLS/uL
ABSOLUTE EOSINOPHIL [3]: 51.33 CELLS/uL
ABSOLUTE LYMPHOCYTE [3]: 9158 CELLS/uL
ABSOLUTE MONOCYTE [3]: 51.33 CELLS/uL
ABSOLUTE SEGMENTED NEUTROPHIL [3]: 572.67 CELLS/uL
BASOPHIL [3]: 0%
EOSINOPHIL [3]: 0.67%
ERYTHROCYTE COUNT [3]: 5.3 x10E6/uL
HEMATOCRIT [3]: 33.23%
HEMOGLOBIN [3]: 12.87 G/DL
LEUKOCYTE COUNT [3]: 9.83 x10E3/uL
LYMPHOCYTE [3]: 93%
MEAN CORPUSCULAR HEMOGLOBIN [3]: 24.27 pg
MEAN CORPUSCULAR HEMOGLOBIN CONCENTRATION [3]: 38.7 G/DL
MEAN CORPUSCULAR VOLUME [3]: 62.83 fL
MONOCYTE [3]: 0.67%
NEUTROPHIL [3]: 5.67%
NUCLEATED RED BLOOD CELLS [3]: 0 /100WBC
PLATELET COUNT [3]: 930.33 x10E3/uL
ALANINE AMINOTRANSFERASE [3]: 63 u/L
ALBUMIN [3]: 4.2 G/DL
ALKALINE PHOSPHATASE [3]: 397.67 u/L
ASPARTATE AMINOTRANSFERASE [3]: 98.33 u/L
BLOOD UREA NITROGEN [3]: 13.33 mg/dL
CARBON DIOXIDE [3]: 35 mmol/L
CHLORIDE [3]: 99 MEQ/L
CHOLESTEROL [3]: 83.33 mg/dL
CREATINE PHOSPHOKINASE [3]: 496 u/L
CREATININE [3]: 0.16 mg/dL
GLUCOSE [3]: 140.67 mg/dL
LACTATE DEHYDROGENASE [3]: 160.33 u/L
LIPASE [3]: 9.67 u/L
PHOSPHORUS [3]: 11.03 mg/dL
POTASSIUM [3]: 6.51 MEQ/L
SODIUM [3]: 143.6 MEQ/L
TOTAL BILIRUBIN [3]: 0.2 mg/dL
TOTAL PROTEIN [3]: 6.1 G/DL
URIC ACID [3]: 0.83 mg/dL
